Results on one compound are retold here after patent publication US20250275928A1, “NANOPARTICLE-BASED ABUSE-DETERRENT FORMULATIONS AND METHODS OF MAKING AND USING” (Purdue Research Foundation, priority 2021, published 2025).

By thermodynamic solubility is commonly meant the concentration in solution at equilibrium with solid.

Series [1] in a line: Thermal stability of thebaine (TGA, heating). The class given is physicochemical.
Series [2] can be described thus: Dissolution in simulated gastric fluid. Particulars: after 12 and 24 h.
Series [3] in a line: Equilibrium solubility of thebaine in ethanol. The class given is physicochemical. Particulars: organic solvent or mixture, thermodynamic from solid. As for the experimental part: Chemical extractability of thebaine, a model opioid drug, as a mixture with a non-gel forming excipient, Avicel pH 102, or selected gel-forming polymers, was tested using absolute ethanol. […] Physical mixtures of thebaine (600 μg) with 150 mg Avicel or Avicel with selected polymers (80 mg XG, 20 mg XG+30 mg HEC, or 20 mg XG+60 mg CS) mg) were extracted in 1 mL of absolute ethanol for 1 h. Free thebaine without any excipients was also tested for comparison.

The nature of series [4]: Chemical extractability from nanocapsules by household solvents.

In brackets after ≈: the same amount, converted by molar mass.

For the compound `COC1=CC=C2[C@H]3Cc4ccc(OC)c5c4[C@@]2(CCN3C)[C@H]1O5` [thebaine], the “drug that withstood heating” value in series [1] (180° C. for 10 min, drug alone) came out at 86.9%. In addition, the “temperature at which decomposition began (TGA)” value in series [1] (thermogravimetric analysis) was “around 200 °C”. For the same compound, in series [2], the “stability in SGF” value is reported as “degraded”. The solubility (thermodynamic) at 24 h in series [3] (in 24 h) was determined as 10.4 mg/mL (≈ 33.4 mM). The thermodynamic solubility at 72 h in series [3] (in 72 h) stood at 10.5 mg/mL (≈ 33.7 mM). Besides, the “solubility in household solvents” value in series [4] (all tested solvents except for 0.9% NaCl and 0.1 M NaOH) is reported as “soluble”. For the same compound, in series [4] (most solvents at equivalent concentrations), the “dissolution in household solvents” value is recorded as “dissolves completely”.
